We go through 27 molecules from publication PMC11467779, “New anti-ovarian cancer quinolone derivatives acting by modulating microRNA processing machinery” (RSC Medicinal Chemistry, 2024).

What is called GI50 is the concentration that inhibits growth by half. As usually defined, the CC50 is the concentration at which the toxic effect on the cells reaches its halfway point. Lower therefore signals harm at low concentration.

One data set relates to SKOV-3 cell line. Nature of the data set: Antiproliferative effect against the SKOV-3 cell line (GI50, cell count). The format is cell-based, human. Conditions: for GI50: Homo sapiens, SK-OV-3, 72 h. The procedure:
(§1) SKOV-3, A2780 and A2780 CIS were cultured and maintained, as previously described,[50] at 37 °C in RPMI 1640 medium (Euroclone) supplemented with 10% fetal bovine serum (FBS; Euroclone), L-glutamine and penicillin/streptomycin (SIGMA-ALDRICH). OVCA433, HEK-293T, HeLa, HCCLM3, SK-Hep-1, MCF-7, A549 and HCT-116 cells were maintained in DMEM medium (Euroclone) containing 10% FBS (Euroclone), L-glutamine and penicillin/streptomycin (SIGMA-ALDRICH). Wi-38 cells were cultured in DMEM medium (Euroclone) supplemented with 10% FBS (Euroclone), L-glutamine and penicillin/streptomycin (SIGMA-ALDRICH), and 1% non-essential amino acids (NEAA; Euroclone). The cultures were maintained in a constant temperature incubator at 37 °C with 5% CO2. […] Once cell adhesion had been promoted, the compounds were added to the culture medium. After 72 hours of treatment, the cells were counted, and the data analyzed by linear regression. Each experiment was carried out three times in triplicate and three separate cell counts were made for each sample. […] Afterwards, the concentration range was narrowed to the relative value obtained in the first evaluation in order to obtain an accurate value.

The nature of data set [1]: Cytotoxicity against non-tumor Wi-38 cells (CC50, cell count). The format is cell-based. Conditions: human, Wi-38 cells (non-tumor), 50% cytotoxicity concentration, 72 hours of treatment. As to the method: as §1
In a further data set the test system is miRNA processing / RNAi. The arrangement: method as in PMID 18641635. Conditions: cited from earlier work.
For data set [2], the system named is cisplatin-resistant A2780 cells (A2780 CIS). In words: Viable cells of cisplatin-resistant A2780 (A2780 CIS) treated with 33, cisplatin or both. The format is cell-based, human. Conditions: cisplatin 1 μM, 48 hours. The procedure:
A2780 and SKOV-3 cells were treated with 50 μM of 33 for 72 h before RNA and protein extraction and expression analyses. A2780 and A2780 CIS were treated with 33 (30 μM) and/or cisplatin (1 μM, Sigma-Aldrich) for 48 hours while MCF-7, A549 and HCT-116 were treated with 33 (30 μM) for 72 hours. Total cell number and viability have been assessed using Trypan Blue Solution (Thermo Fisher Scientific) and Countess™ 3 Automated Cell Counter (Thermo Fisher Scientific).

Setting [3] is: 50% cell growth inhibition, 72 hours of treatment, cell count, ND = activity not dose dependent.

`Cn1cc(C(=O)O)c(=O)c2cc(N)c(N3CCN(c4nccs4)CC3)cc21` [Compound 8] gave a GI50 in the data set on SKOV-3 cell line (setting [3]) of 50 µM.
Same read-out and setting: next, `Cn1cc(C(=O)O)c(=O)c2ccc(N3CCN(c4nccs4)CC3)nc21` [Compound 9]: 50 µM; `CN1CCN(c2c(F)cc3c(=O)c(C(=O)O)cn4c3c2SCC4)CC1` [Compound 10, rufloxacin, reference compound]: 100 µM.
For the molecule `CCn1cc(C(=O)O)c(=O)c2cc(N)c(N3CCc4ccccc4C3)c(C)c21` [Compound 11, 6-Amino-7-(3,4-dihydroisoquinolin-2(1H)-yl)-1-ethyl-8-methyl-4-oxo-1,4-dihydroquinoline-3-carboxylic acid], the CC50 at 72 h in data set [1] is 53.5 ± 20.6 µM. In the data set on SKOV-3 cell line (setting [3]), this molecule returned a concentration for 50% growth inhibition (GI50) of 13.1 ± 1.29 µM. In addition, in the data set with SKOV-3 cell line (SKOV-3 versus Wi-38), the “fold more toxic against tumor cells (CC50 Wi-38 vs GI50 SKOV-3)” value is reported as “approximately 4 fold”.
`Cc1c(N2CCC(c3ccccc3)CC2)c(N)cc2c(=O)c(C(=O)O)cn(C3CC3)c12` [Compound 12, 6-Amino-1-cyclopropyl-8-methyl-4-oxo-7-(4-phenylpiperidin-1-yl)-1,4-dihydroquinoline-3-carboxylic acid] gave a CC50 at 72 h in data set [1] of 53 ± 14.9 µM. The molecule further registered a GI50 in the data set with SKOV-3 cell line (setting [3]) of 17.1 ± 2.61 µM.
For `Cc1c(N2Cc3ccccc3C2)c(N)cc2c(=O)c(C(=O)O)cn(C3CC3)c12` [Compound 13, 6-Amino-1-cyclopropyl-7-(1,3-dihydro-2H-isoindol-2-yl)-8-methyl-4-oxo-1,4-dihydroquinoline-3-carboxylic acid], growth in the data set on SKOV-3 cell line (setting [3]) was halved (GI50) at 28.8 ± 4.11 µM.
Same read-out and setting: next, `Cc1c(NCCN2CCCCC2)c(N)cc2c(=O)c(C(=O)O)cn(C3CC3)c12` [Compound 14, 6-Amino-1-cyclopropyl-8-methyl-4-oxo-7-[(2-piperidin-1-ylethyl)amino]-1,4-dihydroquinoline-3-carboxylic acid]: 103 ± 21.6 µM.
Molecule `Nc1cc2c(=O)c(C(=O)O)cn(C3CC3)c2cc1N1CCc2ccccc2C1` [Compound 15, 6-Amino-1-cyclopropyl-7-(3,4-dihydroisoquinolin-2(1H)-yl)-4-oxo-1,4-dihydroquinoline-3-carboxylic acid] had a CC50 at 72 h in data set [1] of 36.3 ± 8.86 µM. The molecule also returned a GI50 with SKOV-3 cell line (setting [3]) of 13.2 ± 1.13 µM.
In turn, `CCn1cc(C(=O)O)c(=O)c2cc(N)c(N3CCc4ccccc4C3)cc21` [Compound 16, 6-Amino-7-(3,4-dihydroisoquinolin-2(1H)-yl)-1-ethyl-4-oxo-1,4-dihydroquinoline-3-carboxylic acid] came in with a CC50 at 72 h in data set [1] of 8.19 ± 14.3 µM. The molecule also registered a GI50 with SKOV-3 cell line (setting [3]) of 5.44 ± 0.13 µM.
In the case of `NC(=O)c1cn(C2CC2)c2cc(N3CCc4ccccc4C3)c(N)cc2c1=O` [Compound 17, 6-Amino-1-cyclopropyl-7-(3,4-dihydroisoquinolin-2(1H)-yl)-4-oxo-1,4-dihydroquinoline-3-carboxamide], in the data set on SKOV-3 cell line (setting [3]), the “GI50 SKOV-3” value is “completely inactive”.
As for `Nc1cc2c(=O)c(C(=O)O)cn(C3CC3)c2cc1N1CCc2ncncc2C1` [Compound 18, 6-Amino-1-cyclopropyl-7-(7,8-dihydropyrido[4,3-d]pyrimidin-6(5H)-yl)-4-oxo-1,4-dihydroquinoline-3-carboxylic acid], the GI50 with SKOV-3 cell line (setting [3]) was 152 ± 3.05 µM.
As to `Nc1cc2c(=O)c(C(=O)O)cn(C3CC3)c2cc1N1CCc2nccnc2C1` [Compound 19, 6-Amino-1-cyclopropyl-7-(7,8-dihydropyrido[3,4-b]pyrazin-6(5H)-yl)-4-oxo-1,4-dihydroquinoline-3-carboxylic acid], growth with SKOV-3 cell line (setting [3]) was halved (GI50) at 104 ± 2.03 µM. The GI50 values of the last two molecules are within 1.5-fold of each other.
Same read-out and setting: the value for `Nc1cc2c(=O)c(C(=O)O)cn(C3CC3)c2cc1N1CCNc2ccccc21` [Compound 20, 6-Amino-1-cyclopropyl-7-(3,4-dihydroquinoxalin-1(2H)-yl)-4-oxo-1,4-dihydroquinoline-3-carboxylic acid] was 65.4 ± 24.3 µM.
In the case of `Nc1cc2c(=O)c(C(=O)O)cn(C3CC3)c2cc1N1CCc2sccc2C1` [Compound 21, 6-Amino-1-cyclopropyl-7-(6,7-dihydrothieno[3,2-c]pyridin-5(4H)-yl)-4-oxo-1,4-dihydroquinoline-3-carboxylic acid], the CC50 at 72 h in data set [1] was 103 ± 15.5 µM. The molecule also came in with a GI50 in the data set on SKOV-3 cell line (setting [3]) of 23.7 ± 1.02 µM.
The matching figures for `CC1c2ccccc2CCN1c1cc2c(cc1N)c(=O)c(C(=O)O)cn2C1CC1` (centres unmarked) [Compound 22, 6-Amino-1-cyclopropyl-7-(1-methyl-3,4-dihydroisoquinolin-2(1H)-yl)-4-oxo-1,4-dihydroquinoline-3-carboxylic acid]: 59.9 ± 5.95 µM and 18.5 ± 1.71 µM.
For `Nc1cc2c(=O)c(C(=O)O)cn(C3CC3)c2cc1N1Cc2ccccc2C[C@H]1CO` [Compound 23, 6-Amino-1-cyclopropyl-7-[(3S)-3-(hydroxymethyl)-3,4-dihydroisoquinolin-2(1H)-yl]-4-oxo-1,4-dihydroquinoline-3-carboxylic acid], the GI50 in the data set with SKOV-3 cell line (setting [3]) came out at 46.2 ± 8.38 µM.
Turning to `Nc1cc2c(=O)c(C(=O)O)cn(C3CC3)c2cc1N1CCC(c2ccccc2)CC1` [Compound 24, 6-Amino-1-cyclopropyl-4-oxo-7-(4-phenylpiperidin-1-yl)-1,4-dihydroquinoline-3-carboxylic acid], the CC50 at 72 h in data set [1] amounted to 45 ± 13.4 µM. Moreover, in the data set with SKOV-3 cell line (setting [3]), the GI50 is 9.19 ± 1.05 µM.
The matching figures for `CCN(Cc1ccccc1)c1cc2c(cc1N)c(=O)c(C(=O)O)cn2C1CC1` [Compound 25, 6-Amino-7-[benzyl(ethyl)amino]-1-cyclopropyl-4-oxo-1,4-dihydroquinoline-3-carboxylic acid]: 79.7 ± 11.8 µM and 16 ± 2.94 µM.
`Nc1cc2c(=O)c(C(=O)O)cn(C3CC3)c2cc1N(CCO)Cc1ccccc1` [Compound 26, 6-Amino-7-[benzyl(2-hydroxyethyl)amino]-1-cyclopropyl-4-oxo-1,4-dihydroquinoline-3-carboxylic acid] displayed a GI50 in the data set on SKOV-3 cell line (setting [3]) of 33.9 ± 6.43 µM. Moreover, the “fold increase in GI50 SKOV-3 versus 25” value in the data set with SKOV-3 cell line (versus compound 25) came out at 2 fold.
With `O=C(O)c1cn(C2CC2)c2nc(N3CCc4ccccc4C3)c(F)cc2c1=O` [Compound 28, 1-Cyclopropyl-7-(3,4-dihydroisoquinolin-2(1H)-yl)-6-fluoro-4-oxo-1,4-dihydro-1,8-naphthyridine-3-carboxylic acid], it took 46.8 ± 7.44 µM to inhibit growth with SKOV-3 cell line (setting [3]) by half (GI50).
`CCN(Cc1ccccc1)c1nc2c(cc1F)c(=O)c(C(=O)O)cn2CC` [Compound 29, 7-[Benzyl(ethyl)amino]-1-ethyl-6-fluoro-4-oxo-1,4-dihydro-1,8-naphthyridine-3-carboxylic acid]: in data set [1], the CC50 at 72 h turned out to be 25.5 ± 11.5 µM. Besides, in the data set on SKOV-3 cell line (setting [3]), the GI50 came out at 16.2 ± 1.03 µM.
The matching figures for `CCn1cc(C(=O)O)c(=O)c2cc(F)c(N3CCC(c4ccccc4)CC3)nc21` [Compound 30, 1-Ethyl-6-fluoro-4-oxo-7-(4-phenylpiperidin-1-yl)-1,4-dihydro-1,8-naphthyridine-3-carboxylic acid]: 4.65 ± 5.96 µM and 8.34 ± 1.28 µM.
The matching figures for `CCn1cc(C(=O)O)c(=O)c2cc(F)c(N3CCc4ccccc4C3)c(C)c21` [Compound 31, 7-(3,4-Dihydroisoquinolin-2(1H)-yl)-1-ethyl-6-fluoro-8-methyl-4-oxo-1,4-dihydroquinoline-3-carboxylic acid]: 56.6 ± 37.4 µM and 14.9 ± 3.24 µM.
For `Cc1c(N2CCc3ccccc3C2)c(F)cc2c(=O)c(C(=O)O)cn(C3CC3)c12` [Compound 32, 1-Cyclopropyl-7-(3,4-dihydroisoquinolin-2(1H)-yl)-6-fluoro-8-methyl-4-oxo-1,4-dihydroquinoline-3-carboxylic acid], it took 90.7 ± 30.9 µM to reach half-maximal cytotoxicity in data set [1] (CC50 at 72 h). It took 25 ± 6.04 µM to inhibit growth with SKOV-3 cell line (setting [3]) by half (GI50).
Regarding `O=C(O)c1cn(C2CC2)c2cc(N3CCNCC3)c(F)cc2c1=O` [ciprofloxacin], the “RNAi enhancer / SMER effect” value in the data set on miRNA processing / RNAi was “very weak SMER”.
On to `N.N.[Cl][Pt][Cl]` [cisplatin, reference compound], for which the “resistance of A2780 CIS to cisplatin compared to A2780” value in data set [2] was “significantly greater resistance to cisplatin”.
Consider `CC1COc2c(N3CCN(C)CC3)c(F)cc3c(=O)c(C(=O)O)cn1c23` (centres unmarked) [ofloxacin], for which, in the data set with miRNA processing / RNAi, the “RNAi enhancer / SMER effect” value was “did not show any significant RNAi enhancer effect”.
